# According to BindingDB's records for doi:10.1021/jm0704898 (Georgetown University Medical Center, 2007):
# Key:
# [1] = target: T1, Suppressor of tumorigenicity 14 protein (Homo sapiens, UniProt Q9Y5Y6); assay: Enzyme Inhibition Assay; details: pH 8.5; 22 °C
# T1 sequence (Q9Y5Y6 whole entry): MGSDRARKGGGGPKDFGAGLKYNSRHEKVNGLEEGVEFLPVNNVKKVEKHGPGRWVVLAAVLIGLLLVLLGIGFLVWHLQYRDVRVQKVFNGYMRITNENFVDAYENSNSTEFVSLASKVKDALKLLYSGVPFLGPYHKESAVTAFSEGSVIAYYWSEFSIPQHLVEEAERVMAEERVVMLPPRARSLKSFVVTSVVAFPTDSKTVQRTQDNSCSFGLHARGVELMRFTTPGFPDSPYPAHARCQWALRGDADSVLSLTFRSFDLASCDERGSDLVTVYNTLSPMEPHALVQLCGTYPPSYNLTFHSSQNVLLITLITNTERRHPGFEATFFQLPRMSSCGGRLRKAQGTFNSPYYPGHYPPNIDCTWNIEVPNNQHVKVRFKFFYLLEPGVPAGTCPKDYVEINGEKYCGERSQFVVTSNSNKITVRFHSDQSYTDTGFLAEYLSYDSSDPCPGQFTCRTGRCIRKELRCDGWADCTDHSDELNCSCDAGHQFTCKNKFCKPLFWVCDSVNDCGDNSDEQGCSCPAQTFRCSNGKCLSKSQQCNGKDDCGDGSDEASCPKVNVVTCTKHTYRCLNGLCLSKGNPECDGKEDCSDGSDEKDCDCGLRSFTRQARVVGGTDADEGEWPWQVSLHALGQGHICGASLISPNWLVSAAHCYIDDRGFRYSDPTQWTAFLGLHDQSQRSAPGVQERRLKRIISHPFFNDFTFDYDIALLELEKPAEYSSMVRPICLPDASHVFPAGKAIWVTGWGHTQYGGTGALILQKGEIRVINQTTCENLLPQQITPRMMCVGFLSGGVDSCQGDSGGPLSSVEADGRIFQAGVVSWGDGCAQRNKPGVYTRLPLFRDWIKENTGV
# Procedure: (§1) The enzyme reaction was initiated by adding fluorescence peptide substrate to reaction mixture containing enzyme and test compounds. […] Hydrolysis rates were recorded in presence of six to seven different concentrations of inhibitor.
# Prothrombin = Prothrombin (Bos taurus, UniProt P00735); assay: Enzyme Inhibition Assay; details: pH 8.5; 22 °C
# Procedure: as §1
Ki [1] [nM],Ki (Prothrombin) [nM],SMILES
890,33600,CC[C@H](C)[C@@H]1NC(=O)[C@@H]2CCCN2C(=O)[C@@H]2CCCN2C(=O)[C@H]([C@@H](C)CC)NC(=O)[C@H](CO)NC(=O)[C@H](CCCCN)NC(=O)[C@H]([C@@H](C)O)NC(=O)[C@@H]2CSSC[C@H](NC1=O)C(=O)N[C@@H](Cc1c(F)c(F)c(F)c(F)c1F)C(=O)N1CCC[C@H]1C(=O)N[C@@H](CC(=O)O)C(=O)NCC(=O)N[C@@H](CCCN=C(N)N)C(=O)N2
> 250000,,"CC[C@H](C)[C@@H]1NC(=O)[C@@H]2CCCN2C(=O)[C@@H]2CCCN2C(=O)[C@H]([C@@H](C)CC)NC(=O)[C@H](CO)NC(=O)[C@H](CCCN)NC(=O)[C@H]([C@@H](C)O)NC(=O)[C@@H]2CSSC[C@H](NC1=O)C(=O)N[C@@H](Cc1ccccc1)C(=O)N1CCC[C@H]1C(=O)N[C@@H](CC(=O)O)C(=O)NCC(=O)N[C@@H](CCCN=C(N)N)C(=O)N2 [2-[(1R,4S,7S,13S,19S,22S,25S,28S,31R,34S,40S,43S,49S)-25-(3-aminopropyl)-49-benzyl-4,19-bis[(2S)-butan-2-yl]-34-(3-carbamimidamidopropyl)-28-[(1R)-1-hydroxyethyl]-22-(hydroxymethyl)-3,6,12,18,21,24,27,30,33,36,39,42,48,51-tetradecaoxo-53,54-dithia-2,5,11,17,20,23,26,29,32,35,38,41,47,50-tetradecaazapentacyclo[29.20.4.0^{7,11}.0^{13,17}.0^{43,47}]pentapentacontan-40-yl]acetic acid]"
100,,"CC[C@H](C)[C@@H]1NC(=O)[C@@H]2CCCN2C(=O)[C@@H]2CCCN2C(=O)[C@H]([C@@H](C)CC)NC(=O)[C@H](CO)NC(=O)[C@H](CCCCN)NC(=O)[C@H]([C@@H](C)O)NC(=O)[C@@H]2CSSC[C@H](NC1=O)C(=O)N[C@@H](Cc1ccccc1)C(=O)N1CCC[C@H]1C(=O)N[C@@H](CC(=O)O)C(=O)NCC(=O)N[C@@H](CCCNC(=N)N)C(=O)N2 [2-[(1R,4S,7S,13S,19S,22S,25S,28S,31R,34S,40S,43S,49S)-25-(4-aminobutyl)-49-benzyl-4,19-bis[(2S)-butan-2-yl]-34-(3-carbamimidamidopropyl)-28-[(1R)-1-hydroxyethyl]-22-(hydroxymethyl)-3,6,12,18,21,24,27,30,33,36,39,42,48,51-tetradecaoxo-53,54-dithia-2,5,11,17,20,23,26,29,32,35,38,41,47,50-tetradecaazapentacyclo[29.20.4.0^{7,11}.0^{13,17}.0^{43,47}]pentapentacontan-40-yl]acetic acid]"
380,,"CC[C@H](C)[C@@H]1NC(=O)[C@@H]2CCCN2C(=O)[C@@H]2CCCN2C(=O)[C@H]([C@@H](C)CC)NC(=O)[C@H](CO)NC(=O)[C@H](CCCCN)NC(=O)[C@H]([C@@H](C)O)NC(=O)[C@@H]2CCSSC[C@H](NC1=O)C(=O)N[C@@H](Cc1ccccc1)C(=O)N1CCC[C@H]1C(=O)N[C@@H](CC(=O)O)C(=O)NCC(=O)N[C@@H](CCCN=C(N)N)C(=O)N2 [2-[(1R,4S,7S,13S,19S,22S,25S,28S,31S,34S,40S,43S,49S)-25-(4-aminobutyl)-49-benzyl-4,19-bis[(2S)-butan-2-yl]-34-(3-carbamimidamidopropyl)-28-[(1R)-1-hydroxyethyl]-22-(hydroxymethyl)-3,6,12,18,21,24,27,30,33,36,39,42,48,51-tetradecaoxo-53,54-dithia-2,5,11,17,20,23,26,29,32,35,38,41,47,50-tetradecaazapentacyclo[29.20.5.0^{7,11}.0^{13,17}.0^{43,47}]hexapentacontan-40-yl]acetic acid]"
